Data on 1 compound can be found in the NIST ThermoML archive (doi:10.1016/j.jct.2015.11.007).

Each structure is given as a SMILES string. Numbers after ± are expanded uncertainties.

For series [1] the following is noted: Crystal; DTA.
Series [2] can be described thus: Molar enthalpy of transition or fusion. As to conditions: Crystal; DSC.

With `NC(=O)CN1CC(O)CC1=O` (configuration not stated) [4-hydroxy-2-oxo-1-pyrrolidineacetamide], the Normal melting temperature in series [1] was determined as 172.13 ± 0.61 °C. In addition, the “Molar enthalpy of transition or fusion” value in series [2] was 34.7 ± 1.4 kJ/mol.
